Test results from ChEMBL document CHEMBL1201862, “PubChem BioAssay data set” (2004).
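Dose response: 5 concentrations. Exposure: 48 h. Format: 96-well plates. Endpoint: linear interpolation; highest concentration if not reached. Abbreviation: GI50, concentration required for 50% inhibition of growth.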 Activity calls are given as the source filed them. Cut-off read from the data, not from the text of the source: active = GI50 up to about 1.1 µM and inactive = higher.

Experiments:
Assay in all cases: NCI-60 cell line screen, 48 h
[1] = test system: CCRF-CEM
[2] = test system: NCI-H23
[3] = test system: EKVX
[4] = test system: LXFL 529
[5] = test system: UACC-257
[6] = test system: SW-620
[7] = test system: HCT-116
[8] = test system: SK-MEL-5
[9] = test system: Malme-3M
[10] = test system: SNB-75
[11] = test system: TK-10
[12] = test system: U-251
[13] = test system: HT-29
[14] = test system: M19-MEL
[15] = test system: HL-60
[16] = test system: HOP-92
[17] = test system: HCT-15
[18] = test system: COLO 205
[19] = test system: HCC 2998
[20] = test system: ACHN
[21] = test system: SF-539
[22] = test system: UACC-62
[23] = test system: SNB-78
[24] = test system: DLD-1
[25] = test system: M14
[26] = test system: UO-31
[27] = test system: OVCAR-3
[28] = test system: SK-MEL-2
[29] = test system: DMS-273
[30] = test system: OVCAR-4
[31] = test system: SF-295
[32] = test system: SF-268
[33] = test system: SN12C
[34] = test system: DMS-114
[35] = test system: HOP-62
[36] = test system: OVCAR-8
[37] = test system: RPMI-8226
[38] = test system: A549
[39] = test system: NCI-H522
[40] = test system: 786-0
[41] = test system: SK-MEL-28
[42] = test system: KM-20L2
[43] = test system: RXF 393
[44] = test system: IGROV-1
[45] = test system: KM12
[46] = test system: SNB-19
[47] = test system: K562
[48] = test system: MOLT-4
[49] = test system: NCI-H460
[50] = test system: XF498
[51] = test system: OVCAR-5
[52] = test system: SR
[53] = test system: CAKI-1
[54] = test system: NCI-H226
[55] = test system: LOX IMVI
[56] = test system: SK-OV-3

**Q.** What does the source list for CCc1cc2c(O)c(c1)Cc1cc(CC)cc(c1O)Cc1cc(CC)cc(c1O)Cc1cc(CC)cc(c1O)Cc1cc(CC)cc(c1O)Cc1cc(CC)cc(c1O)Cc1cc(CC)cc(c1O)C2?
**A.** GI50 [1]: > 100 µM (inactive); GI50 [2]: > 100 µM (inactive); GI50 [3]: > 100 µM (inactive); GI50 [4]: > 100 µM (inactive); GI50 [5]: > 100 µM (inactive); GI50 [6]: > 100 µM (inactive); GI50 [7]: > 100 µM (inactive); GI50 [8]: > 100 µM (inactive); GI50 [9]: > 100 µM (inactive); GI50 [10]: 28.6 µM (inactive); GI50 [11]: > 100 µM (inactive); GI50 [12]: 62.8 µM (inactive); GI50 [13]: > 100 µM (inactive); GI50 [14]: > 100 µM (inactive); GI50 [15]: > 100 µM (inactive); GI50 [16]: 44 µM (inactive); GI50 [17]: > 100 µM; GI50 [18]: > 100 µM (inactive); GI50 [19]: > 100 µM (inactive); GI50 [20]: > 100 µM (inactive); GI50 [21]: > 100 µM (inactive); GI50 [22]: > 100 µM (inactive); GI50 [23]: 55 µM (inactive); GI50 [24]: > 100 µM (inactive); GI50 [25]: > 100 µM (inactive); GI50 [26]: > 100 µM (inactive); GI50 [27]: > 100 µM (inactive); GI50 [28]: > 100 µM (inactive); GI50 [29]: > 100 µM (inactive); GI50 [30]: > 100 µM (inactive); GI50 [31]: > 100 µM (inactive); GI50 [32]: > 100 µM (inactive); GI50 [33]: > 100 µM (inactive); GI50 [34]: > 100 µM (inactive); GI50 [35]: > 100 µM (inactive); GI50 [36]: > 100 µM (inactive); GI50 [37]: > 100 µM (inactive); GI50 [38]: > 100 µM (inactive); GI50 [39]: > 100 µM (inactive); GI50 [40]: > 100 µM (inactive); GI50 [41]: > 100 µM (inactive); GI50 [42]: > 100 µM (inactive); GI50 [43]: 16.9 µM (inactive); GI50 [44]: > 100 µM (inactive); GI50 [45]: > 100 µM (inactive); GI50 [46]: 22.1 µM (inactive); GI50 [47]: > 10 µM (inactive); GI50 [48]: 78.2 µM (inactive); GI50 [49]: > 100 µM (inactive); GI50 [50]: 48.2 µM (inactive); GI50 [51]: > 100 µM (inactive)

**Q.** With Cc1nc(=O)n2c(C)n[nH]c2c1C(=O)O as the molecule, how does the GI50 [1] read?
**A.** Its GI50 is > 100 µM (inactive).

**Q.** What about the GI50 [2] of the same molecule?
**A.** The GI50 was > 100 µM (inactive).

**Q.** What about the GI50 [3] of the same molecule?
**A.** Its GI50 is > 100 µM (inactive).

**Q.** And the GI50 [4]?
**A.** Its GI50 is > 100 µM (inactive).

**Q.** What about the GI50 [52] of the same molecule?
**A.** The GI50 was > 100 µM (inactive).

**Q.** What about the GI50 [6] of the same molecule?
**A.** Its GI50 is > 100 µM (inactive).

**Q.** And the GI50 [7]?
**A.** The GI50 was > 100 µM (inactive).

**Q.** What about the GI50 [8] of the same molecule?
**A.** The GI50 was 10 µM (inactive).

**Q.** What about the GI50 [9] of the same molecule?
**A.** Its GI50 is > 100 µM (inactive).

**Q.** And the GI50 [11]?
**A.** Its GI50 is > 100 µM (inactive).

**Q.** What about the GI50 [53] of the same molecule?
**A.** Its GI50 is > 100 µM (inactive).

**Q.** And the GI50 [12]?
**A.** The GI50 was > 100 µM (inactive).

**Q.** And the GI50 [54]?
**A.** Its GI50 is > 100 µM (inactive).

**Q.** And the GI50 [13]?
**A.** Its GI50 is > 100 µM (inactive).

**Q.** And the GI50 [14]?
**A.** Its GI50 is > 100 µM (inactive).

**Q.** And the GI50 [15]?
**A.** Its GI50 is > 100 µM (inactive).

**Q.** What about the GI50 [16] of the same molecule?
**A.** The GI50 was > 100 µM (inactive).

**Q.** And the GI50 [17]?
**A.** The GI50 was over 100 µM.

**Q.** What about the GI50 [18] of the same molecule?
**A.** The GI50 was > 100 µM (inactive).

**Q.** What about the GI50 [20] of the same molecule?
**A.** The GI50 was > 100 µM (inactive).

**Q.** What about the GI50 [21] of the same molecule?
**A.** Its GI50 is > 100 µM (inactive).

**Q.** And the GI50 [22]?
**A.** Its GI50 is > 100 µM (inactive).

**Q.** What about the GI50 [55] of the same molecule?
**A.** Its GI50 is > 100 µM (inactive).

**Q.** What about the GI50 [23] of the same molecule?
**A.** Its GI50 is > 100 µM (inactive).

**Q.** And the GI50 [24]?
**A.** Its GI50 is > 100 µM (inactive).

**Q.** And the GI50 [25]?
**A.** The GI50 was > 100 µM (inactive).

**Q.** What about the GI50 [26] of the same molecule?
**A.** Its GI50 is > 100 µM (inactive).

**Q.** And the GI50 [27]?
**A.** Its GI50 is > 100 µM (inactive).

**Q.** What about the GI50 [28] of the same molecule?
**A.** Its GI50 is > 100 µM (inactive).

**Q.** And the GI50 [30]?
**A.** Its GI50 is > 100 µM (inactive).

**Q.** What about the GI50 [31] of the same molecule?
**A.** Its GI50 is > 100 µM (inactive).

**Q.** And the GI50 [32]?
**A.** Its GI50 is > 100 µM (inactive).

**Q.** What about the GI50 [33] of the same molecule?
**A.** The GI50 was > 100 µM (inactive).

**Q.** And the GI50 [34]?
**A.** Its GI50 is > 100 µM (inactive).

**Q.** And the GI50 [35]?
**A.** Its GI50 is > 100 µM (inactive).

**Q.** And the GI50 [36]?
**A.** The GI50 was > 100 µM (inactive).

**Q.** And the GI50 [37]?
**A.** The GI50 was > 100 µM (inactive).

**Q.** And the GI50 [39]?
**A.** The GI50 was > 100 µM (inactive).

**Q.** And the GI50 [40]?
**A.** The GI50 was > 100 µM (inactive).

**Q.** And the GI50 [41]?
**A.** Its GI50 is > 100 µM (inactive).

**Q.** What about the GI50 [43] of the same molecule?
**A.** The GI50 was 31.1 µM (inactive).

**Q.** And the GI50 [44]?
**A.** The GI50 was > 100 µM (inactive).

**Q.** And the GI50 [45]?
**A.** The GI50 was > 100 µM (inactive).

**Q.** What about the GI50 [47] of the same molecule?
**A.** The GI50 was > 100 µM (inactive).

**Q.** And the GI50 [56]?
**A.** Its GI50 is > 100 µM (inactive).

**Q.** And the GI50 [48]?
**A.** Its GI50 is > 100 µM (inactive).

**Q.** What about the GI50 [49] of the same molecule?
**A.** The GI50 was > 100 µM (inactive).

**Q.** What about the GI50 [50] of the same molecule?
**A.** The GI50 was > 100 µM (inactive).

**Q.** And the GI50 [51]?
**A.** Its GI50 is > 100 µM (inactive).

**Q.** Which results are given for CN(C)c1nc(N(C)C)nc(N(C)CN(C)c2ccc(Cl)cc2)n1?
**A.** GI50 [1]: > 100 µM (inactive); GI50 [2]: > 100 µM (inactive); GI50 [4]: > 100 µM (inactive); GI50 [5]: > 100 µM (inactive); GI50 [6]: > 100 µM (inactive); GI50 [7]: > 100 µM (inactive); GI50 [8]: > 100 µM (inactive); GI50 [9]: > 100 µM (inactive); GI50 [10]: > 100 µM (inactive); GI50 [11]: > 100 µM (inactive); GI50 [12]: > 100 µM (inactive); GI50 [54]: > 100 µM (inactive); GI50 [13]: > 100 µM (inactive); GI50 [14]: > 100 µM (inactive); GI50 [15]: 1.72 µM (inactive); GI50 [17]: > 100 µM; GI50 [20]: > 100 µM (inactive); GI50 [21]: > 100 µM (inactive); GI50 [22]: > 100 µM (inactive); GI50 [55]: > 100 µM (inactive); GI50 [23]: > 100 µM (inactive); GI50 [24]: > 100 µM (inactive); GI50 [26]: > 100 µM (inactive); GI50 [27]: 39 µM (inactive); GI50 [28]: > 100 µM (inactive); GI50 [29]: > 100 µM (inactive); GI50 [30]: > 100 µM (inactive); GI50 [31]: > 100 µM (inactive); GI50 [32]: > 100 µM (inactive); GI50 [33]: > 100 µM (inactive); GI50 [34]: > 100 µM (inactive); GI50 [36]: > 100 µM (inactive); GI50 [38]: > 100 µM (inactive); GI50 [39]: > 100 µM (inactive); GI50 [41]: > 100 µM (inactive); GI50 [43]: > 100 µM (inactive); GI50 [44]: > 100 µM (inactive); GI50 [45]: > 100 µM (inactive); GI50 [46]: > 100 µM (inactive); GI50 [47]: > 100 µM (inactive); GI50 [56]: > 100 µM (inactive); GI50 [48]: > 100 µM (inactive); GI50 [49]: > 100 µM (inactive); GI50 [50]: > 100 µM (inactive)
